Measurements as given in US20260314594A1, “METHODS OF ENHANCING POLLEN VIABILITY OF PLANTS” (ACADEMIA SINICA, priority 2022, published 2026).

Key:
[1] = test system: Arabidopsis thaliana (Col-0) pollen; test: Arabidopsis pollen germination in vitro; type: cell-based; conditions: HOPA at 25° C. for 2 hours; FIG. 8B: 200 ppm, 2.5 hours
Method: Lily pollen was cultured in a germination medium (GM) containing 12.7 mM CaCl2), 1.62 mM H3BO3, 9.9 mM KNO3, and 10% sucrose, pH5.2 at 28° C. for 2 hours with shaking at 50 rpm in the dark. Tobacco (Nicotiana tabacum) pollen was germinated in GM containing 1 mM CaCl2), 1 mM KCl, 1.6 mM H3BO3, 5% sucrose, 30 μM CuSO4, 15 mM MES, and 12.5% PEG4000, pH 5.9 at 25° C. for 2 hours with shaking at 50 rpm in the dark. […] An Olympus BX51 microscope recorded germinating pollen. Pollen germination rate was calculated using the formula below: Pollen germination rate (%)=number of germinated pollen grains per field of view by the total number of pollen grains per field of view X100.
(§1) ImageJ measured pollen tube length and Western blot band intensity quantification. All P-values were calculated by One-way ANOVA (Analysis Of Variance) and Tukey's post hoc tests with SPSS
(§2) To investigate the possibility that HOPA can stimulate diverse-species pollen germination, we examined Nicotiana tabacum and Arabidopsis thaliana (Col-0) pollen in GM with or without HOPA at 25° C. for 2 hours. […] Those results reveal the promising universal function of HOPA in stimulating pollen germination.

lily pollen tube = test: Lily pollen tube elongation; type: cell-based, Easter lily (Lilium longiflorum Thunb. cv White Heaven); conditions: 100 ppm HOPA
Method: (§3) Lily pollen was cultured in a germination medium (GM) containing 12.7 mM CaCl2), 1.62 mM H3BO3, 9.9 mM KNO3, and 10% sucrose, pH5.2 at 28° C. for 2 hours with shaking at 50 rpm in the dark. Tobacco (Nicotiana tabacum) pollen was germinated in GM containing 1 mM CaCl2), 1 mM KCl, 1.6 mM H3BO3, 5% sucrose, 30 μM CuSO4, 15 mM MES, and 12.5% PEG4000, pH 5.9 at 25° C. for 2 hours with shaking at 50 rpm in the dark. Arabidopsis (Arabidopsis thaliana, Col-0) pollen was germinated in GM containing 5 mM CaCl2), 1 mM MgSO4·5 mM KCl·0.01% H3BO3, 10% Sucrose, pH 7.5 at 25° C. for 2 hours with shaking at 50 rpm in the dark. An Olympus BX51 microscope recorded germinating pollen. Pollen germination rate was calculated using the formula below: Pollen germination rate (%)=number of germinated pollen grains per field of view by the total number of pollen grains per field of view X100.
as §1
We germinated lily pollen in GM with or without 100 ppm HOPA at 28° C. for different time intervals to obtain their growth rates.

Easter lily pollen = Easter lily pollen germination in vitro (germination rate in germination medium); type: cell-based, Easter lily (Lilium longiflorum Thunb. cv White Heaven)
Method: Pollen and stigma exudate (SE) were collected from more than ten thousand Easter lily (Lilium longiflorum Thunb. cv White Heaven) flowers. After dehydration at room temperature for 4 to 5 days, pollen grains were collected from dehydrated anthers. Pistils were harvested and used for SE collection. In general, 20~50 μL SE collected from a single ‘White Heaven’ pistil will be stored at −20° C. for further usage.
as §3, §1
To validate the effect of HOPA on the stimulation of pollen germination, lily pollen grains were cultured in the GM containing 0, 10, 50, 100, and 200 ppm (part per million) of artificial HOPA for different time intervals.
SE has shown its effect on restoring the lost germination capability of pollen stored at low temperatures for a specific period (FIGS. 1A-1E). To validate whether the purified HOPA is the cause to rescue pollen germination capability, pollen grains stored for different time intervals (1 day, 2.5, or 5 months) were subjected to germination assays with or without 100 ppm artificial HOPA present in the GM.
High temperature is an adverse factor for pollen viability (Rang et al., 2011). We further investigated the effect of HOPA on the restoration of pollen viability after heat damage. Freshly collected lily pollen were pre-heat treatments at 28, 37, and 42° C. for 4 hours, followed by subjecting for germination in the GM with or without HOPA at 28° C. for 2 hours.
Low temperature is another adverse factor for pollen germination and growth. […] For the control, about 8% of pollen was germinated after 3-hour culture, but HOPA rescued the pollen germination up to about 29% germination rate (FIGS. 6E-6F).

Nicotiana tabacum pollen = test: Tobacco pollen germination in vitro; type: cell-based; conditions: HOPA at 25° C. for 2 hours; FIG. 8A: 50-1600 ppm, 1.5 hours
Method: as §3, with “Tobacco (Nicotiana tabacum) pollen was germinated in GM containing 1 mM CaCl2), 1 mM KCl, 1.6 mM H3BO3, 5% sucrose, 30 μM CuSO4, 15 mM MES, and 12.5% PEG4000, pH 5.9 at 25° C. for 2 hours with shaking at 50 rpm in the dark.” left out
as §1, §2

CC(C)(CO)C(O)C(=O)NCCCC(=O)O (centres unmarked) [HOPA, hopantenic acid]
Arabidopsis thaliana pollen germination [1]: significantly stimulated
pollen tube elongation rate, in words (lily pollen tube; 28° C. (FIG. 7), compared to GM only): accelerated the pollen tube elongation rate
pollen tube elongation rate (slope) (lily pollen tube; 28° C., different time intervals, control slope 0.0066 (FIG. 7)): 0.0109
pollen germination rate, HOPA dose response (Easter lily pollen; 0, 10, 50, 100 and 200 ppm HOPA in GM, 28° C., FIG. 5: 2 hours, pollen stored at 4° C. one week): linear-gradient increase in a HOPA dosage-dependent manner
pollen germination, significance of stimulation (Easter lily pollen; 10-200 ppm HOPA, 28° C., 2 hours, pollen stored at 4° C. one week (FIGS. 5A-5G)): significantly stimulates Easter lily pollen germination
pollen germination rate at low temperature (Easter lily pollen; 18° C., 3-hour culture, 100 ppm HOPA, control about 8% (FIGS. 6E-6F)): about 29%
pollen germination at low temperature, in words (Easter lily pollen; 18° C., 3-hour growth, 100 ppm HOPA (FIGS. 6E-6F)): partially rescued pollen germination rate at low-temperature conditions
pollen germination rates of HOPA compared with 1/10 SE (Easter lily pollen; 100-200 ppm HOPA (FIG. 5G) vs 1/10 SE (about 785 ppm HOPA)): comparable effects in pollen germination rates
pollen germination of long-time stored pollen (Easter lily pollen; pollen stored at 4° C. for 1 day, 2.5 or 5 months, 100 ppm HOPA, 28° C., 2 hours (FIGS. 6A-6B)): validly stimulates pollen germination in all stored pollen grains, especially for 5-month stored pollen germination
pollen germination after heat damage (Easter lily pollen; pre-heat treatment at 28, 37 and 42° C. for 4 hours, then 100 ppm HOPA at 28° C. for 2 hours (FIGS. 6C-6D)): compromised the heat stress causing a decrease in pollen germination
Nicotiana tabacum pollen germination (Nicotiana tabacum pollen): significantly stimulated
